{
  "source": "patent US10011607B2",
  "about": "“Ethynyl derivatives” (Hoffmann-La Roche Inc., priority 2015, dated 2018)",
  "biological_target": "human mGlu4 receptor (Homo sapiens (Human), UniProt Q14833)",
  "sequence (Q14833 33-912)": "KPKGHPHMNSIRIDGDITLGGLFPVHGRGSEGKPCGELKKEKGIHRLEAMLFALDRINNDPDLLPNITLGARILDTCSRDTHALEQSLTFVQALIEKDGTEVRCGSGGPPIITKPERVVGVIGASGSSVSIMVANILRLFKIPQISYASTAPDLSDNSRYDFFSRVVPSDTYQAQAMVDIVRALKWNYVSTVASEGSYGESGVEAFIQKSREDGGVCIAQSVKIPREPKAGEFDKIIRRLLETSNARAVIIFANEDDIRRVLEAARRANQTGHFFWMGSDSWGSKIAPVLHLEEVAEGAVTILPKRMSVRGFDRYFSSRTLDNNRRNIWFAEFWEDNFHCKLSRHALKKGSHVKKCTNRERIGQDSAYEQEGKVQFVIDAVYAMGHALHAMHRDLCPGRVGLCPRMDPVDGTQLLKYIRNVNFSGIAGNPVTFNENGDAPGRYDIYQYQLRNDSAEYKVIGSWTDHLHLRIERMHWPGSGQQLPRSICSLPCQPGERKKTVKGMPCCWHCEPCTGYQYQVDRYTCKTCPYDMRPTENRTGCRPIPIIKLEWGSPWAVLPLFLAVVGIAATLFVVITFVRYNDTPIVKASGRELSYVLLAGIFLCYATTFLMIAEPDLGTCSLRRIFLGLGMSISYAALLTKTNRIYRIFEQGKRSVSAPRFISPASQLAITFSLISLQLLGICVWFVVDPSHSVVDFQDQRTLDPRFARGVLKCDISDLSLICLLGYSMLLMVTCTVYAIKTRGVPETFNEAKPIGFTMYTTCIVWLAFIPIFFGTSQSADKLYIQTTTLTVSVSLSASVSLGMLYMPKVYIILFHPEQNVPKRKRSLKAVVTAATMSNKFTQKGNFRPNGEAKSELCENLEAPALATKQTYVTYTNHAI",
  "assay": "Ca2+ mobilization in vitro assay on recombinant human mGlu4 expressed in HEK293 cells (PAM)",
  "type": "cell-based",
  "details": "for Emax: HEK293, maximal response in % of maximal stimulatory effect of saturating L-AP4, read-out: Eff. (%); for EC50: HEK293 cells, human mGlu4, in presence of EC20 of L-AP4, read-out: EC50 (nM) mGlu4PAM",
  "description": "FIG. 1: Illustrates the experimental outline for mGlu4 PAM Ca^2+ mobilization screening assay and the determination of EC50 and % Emax values. […] A depression of the signal observed after addition of the EC20 concentration of L-AP4 was indicative of an inhibitory activity of the test compound.\nDetermination of EC50 Values Using a Ca2+ Mobilization In Vitro Assay on Recombinant Human mGlu4 Expressed in HEK293 Cells:\nA monoclonal HEK-293 cell line stably transfected with a cDNA encoding for the human mGlu4 receptor was generated; for the work with mGlu4 Positive Allosteric Modulators (PAMs), a cell line with low receptor expression levels and low constitutive receptor activity was selected to allow the differentiation of agonistic versus PAM activity. Cells were cultured according to standard protocols (Freshney, 2000) in Dulbecco's Modified Eagle Medium with high glucose supplemented with 1 mM glutamine, 10% (vol/vol) heat-inactivated bovine calf serum, Penicillin/Streptomycin, 50 μg/ml hygromycin and 15 μg/ml blasticidin (all cell culture reagents and antibiotics from Invitrogen, Basel, Switzerland).\nAbout 24 hrs before an experiment, 5×10^4 cells/well were seeded in poly-D-lysine coated, black/clear-bottomed 96-well plates. The cells were loaded with 2.5 μM Fluo-4AM in loading buffer (1×HBSS, 20 mM HEPES) for 1 hr at 37° C. and washed five times with loading buffer. The cells were transferred into a Functional Drug Screening System 7000 (Hamamatsu, Paris, France), and 11 half logarithmic serial dilutions of test compound at 37° C. were added and the cells were incubated for 10-30 min. with on-line recording of fluorescence. Following this pre-incubation step, the agonist (2S)-2-amino-4-phosphonobutanoic acid (L-AP4) was added to the cells at a concentration corresponding to EC20 with on-line recording of fluorescence; in order to account for day-to-day variations in the responsiveness of cells, the EC20 of L-AP4 was determined immediately ahead of each experiment by recording of a full dose-response curve of L-AP4.\nResponses were measured as peak increase in fluorescence minus basal (i.e. fluorescence without addition of L-AP4), normalized to the maximal stimulatory effect obtained with saturating concentrations of L-AP4. Graphs were plotted with the % maximal stimulatory using XLfit, a curve fitting program that iteratively plots the data using Levenburg Marquardt algorithm. The single site competition analysis equation used was y=A+((B−A)/(1+((x/C)D))), where y is the % maximal stimulatory effect, A is the minimum y, B is the maximum y, C is the EC50, x is the log 10 of the concentration of the competing compound and D is the slope of the curve (the Hill Coefficient). From these curves the EC50 (drug concentration at which 50% of the maximal receptor activation was achieved), the Hill coefficient as well as the maximal response in % of the maximal stimulatory effect obtained with saturating concentrations of L-AP4 were calculated (see FIG. 1).",
  "data": [
    {"compound": "CC12CC(=O)N(c3c(F)cc(C#Cc4ccccc4)cc3F)C(=O)N1CCN(c1cccnn1)C2=O", "note": "(racemic) [Example 46, (9aRS)-7-[2,6-difluoro-4-(2-phenylethynyl)phenyl]-9a-methyl-2-pyridazin-3-yl-4,9-dihydro-3H-pyrazino[1,2-c]pyrimidine-1,6,8-trione]", "values": [
      {"measurement": "Emax", "value": 106, "unit": "%"},
      {"measurement": "EC50", "value": 132, "unit": "nM"}
    ]},
    {"compound": "Cc1ccc(N2CCN3C(=O)N(c4c(F)cc(C#Cc5ccccc5)cc4F)C(=O)CC3(C)C2=O)nn1", "note": "(racemic) [Example 48, (9aRS)-7-[2,6-difluoro-4-(2-phenylethynyl)phenyl]-9a-methyl-2-(6-methylpyridazin-3-yl)-4,9-dihydro-3H-pyrazino[1,2-c]pyrimidine-1,6,8-trione]", "values": [
      {"measurement": "Emax", "value": 120, "unit": "%"},
      {"measurement": "EC50", "value": 198, "unit": "nM"}
    ]},
    {"compound": "Cn1ncc(N2CCN3C(=O)N(c4c(F)cc(C#Cc5ccccc5)cc4F)C(=O)CC3(C)C2=O)cc1=O", "note": "(racemic) [Example 51, (9aRS)-7-[2,6-difluoro-4-(2-phenylethynyl)phenyl]-9a-methyl-2-(1-methyl-6-oxo-pyridazin-4-yl)-4,9-dihydro-3H-pyrazino[1,2-c]pyrimidine-1,6,8-trione]", "values": [
      {"measurement": "Emax", "value": 120, "unit": "%"},
      {"measurement": "EC50", "value": 191, "unit": "nM"}
    ]},
    {"compound": "CC12CC(=O)N(c3c(F)cc(C#Cc4ccccc4)cc3F)C(=O)N1CCN(c1nccs1)C2=O", "note": "(racemic) [Example 52, (9aRS)-7-[2,6-difluoro-4-(2-phenylethynyl)phenyl]-9a-methyl-2-thiazol-2-yl-4,9-dihydro-3H-pyrazino[1,2-c]pyrimidine-1,6,8-trione]", "values": [
      {"measurement": "Emax", "value": 97, "unit": "%"},
      {"measurement": "EC50", "value": 113, "unit": "nM"}
    ]},
    {"compound": "Cc1cnc(N2CCN3C(=O)N(c4c(F)cc(C#Cc5ccccc5)cc4F)C(=O)CC3(C)C2=O)s1", "note": "(racemic) [Example 53, (9aRS)-7-[2,6-difluoro-4-(2-phenylethynyl)phenyl]-9a-methyl-2-(5-methylthiazol-2-yl)-4,9-dihydro-3H-pyrazino[1,2-c]pyrimidine-1,6,8-trione]", "values": [
      {"measurement": "Emax", "value": 100, "unit": "%"},
      {"measurement": "EC50", "value": 88, "unit": "nM"}
    ]},
    {"compound": "Cc1csc(N2CCN3C(=O)N(c4c(F)cc(C#Cc5ccccc5)cc4F)C(=O)CC3(C)C2=O)n1", "note": "(racemic) [Example 54, (9aRS)-7-[2,6-difluoro-4-(2-phenylethynyl)phenyl]-9a-methyl-2-(4-methylthiazol-2-yl)-4,9-dihydro-3H-pyrazino[1,2-c]pyrimidine-1,6,8-trione]", "values": [
      {"measurement": "Emax", "value": 97, "unit": "%"},
      {"measurement": "EC50", "value": 48, "unit": "nM"}
    ]},
    {"compound": "CC12CC(=O)N(c3c(F)cc(C#Cc4ccccc4)cc3F)C(=O)N1CCN(c1nc(C#N)cs1)C2=O", "note": "(racemic) [Example 55, 2-[(9aRS)-7-[2,6-difluoro-4-(2-phenylethynyl)phenyl]-9a-methyl-1,6,8-trioxo-4,9-dihydro-3H-pyrazino[1,2-c]pyrimidin-2-yl]thiazole-4-carbonitrile]", "values": [
      {"measurement": "Emax", "value": 94, "unit": "%"},
      {"measurement": "EC50", "value": 77, "unit": "nM"}
    ]},
    {"compound": "CC12CC(=O)N(c3c(F)cc(C#Cc4ccccc4)cc3F)C(=O)N1CCN(c1nc(C(F)(F)F)cs1)C2=O", "note": "(racemic) [Example 56, (9aRS)-7-[2,6-difluoro-4-(2-phenylethynyl)phenyl]-9a-methyl-2-[4-(trifluoromethyl)thiazol-2-yl]-4,9-dihydro-3H-pyrazino[1,2-c]pyrimidine-1,6,8-trione]", "values": [
      {"measurement": "Emax", "value": 88, "unit": "%"},
      {"measurement": "EC50", "value": 166, "unit": "nM"}
    ]},
    {"compound": "CC12CC(=O)N(c3c(F)cc(C#Cc4ccccc4)cc3F)C(=O)N1CCN(c1ncc(C(F)(F)F)s1)C2=O", "note": "(racemic) [Example 57, (9aRS)-7-[2,6-difluoro-4-(2-phenylethynyl)phenyl]-9a-methyl-2-[5-(trifluoromethyl)thiazol-2-yl]-4,9-dihydro-3H-pyrazino[1,2-c]pyrimidine-1,6,8-trione]", "values": [
      {"measurement": "Emax", "value": 103, "unit": "%"},
      {"measurement": "EC50", "value": 108, "unit": "nM"}
    ]},
    {"compound": "Cn1cnc(N2CCN3C(=O)N(c4c(F)cc(C#Cc5ccccc5)cc4F)C(=O)CC3(C)C2=O)c1", "note": "(racemic) [Example 58, (9aRS)-7-[2,6-difluoro-4-(2-phenylethynyl)phenyl]-9a-methyl-2-(1-methylimidazol-4-yl)-4,9-dihydro-3H-pyrazino[1,2-c]pyrimidine-1,6,8-trione]", "values": [
      {"measurement": "Emax", "value": 91, "unit": "%"},
      {"measurement": "EC50", "value": 214, "unit": "nM"}
    ]},
    {"compound": "Cc1cn(C)c(N2CCN3C(=O)N(c4c(F)cc(C#Cc5ccccc5)cc4F)C(=O)CC3(C)C2=O)n1", "note": "(racemic) [Example 59, (9aRS)-7-[2,6-difluoro-4-(2-phenylethynyl)phenyl]-2-(1,4-dimethylimidazol-2-yl)-9a-methyl-4,9-dihydro-3H-pyrazino[1,2-c]pyrimidine-1,6,8-trione]", "values": [
      {"measurement": "Emax", "value": 107, "unit": "%"},
      {"measurement": "EC50", "value": 104, "unit": "nM"}
    ]},
    {"compound": "Cc1nc(N2CCN3C(=O)N(c4c(F)cc(C#Cc5ccccc5)cc4F)C(=O)CC3(C)C2=O)cn1C", "note": "(racemic) [Example 60, (9aRS)-7-[2,6-difluoro-4-(2-phenylethynyl)phenyl]-2-(1,2-dimethylimidazol-4-yl)-9a-methyl-4,9-dihydro-3H-pyrazino[1,2-c]pyrimidine-1,6,8-trione]", "values": [
      {"measurement": "Emax", "value": 137, "unit": "%"},
      {"measurement": "EC50", "value": 145, "unit": "nM"}
    ]},
    {"compound": "Cn1ccc(N2CCN3C(=O)N(c4c(F)cc(C#Cc5ccccc5)cc4F)C(=O)CC3(C)C2=O)n1", "note": "(racemic) [Example 62, (9aRS)-7-[2,6-difluoro-4-(2-phenylethynyl)phenyl]-9a-methyl-2-(1-methylpyrazol-3-yl)-4,9-dihydro-3H-pyrazino[1,2-c]pyrimidine-1,6,8-trione]", "values": [
      {"measurement": "Emax", "value": 112, "unit": "%"},
      {"measurement": "EC50", "value": 149, "unit": "nM"}
    ]},
    {"compound": "Cn1nccc1N1CCN2C(=O)N(c3c(F)cc(C#Cc4ccccc4)cc3F)C(=O)CC2(C)C1=O", "note": "(racemic) [Example 64, (9aRS)-7-[2,6-difluoro-4-(2-phenylethynyl)phenyl]-9a-methyl-2-(2-methylpyrazol-3-yl)-4,9-dihydro-3H-pyrazino[1,2-c]pyrimidine-1,6,8-trione]", "values": [
      {"measurement": "Emax", "value": 155, "unit": "%"},
      {"measurement": "EC50", "value": 125, "unit": "nM"}
    ]},
    {"compound": "Cc1cc(N2CCN3C(=O)N(c4c(F)cc(C#Cc5ccccc5)cc4F)C(=O)CC3(C)C2=O)n(C)n1", "note": "(racemic) [Example 66, (9aRS)-7-[2,6-difluoro-4-(2-phenylethynyl)phenyl]-2-(2,5-dimethylpyrazol-3-yl)-9a-methyl-4,9-dihydro-3H-pyrazino[1,2-c]pyrimidine-1,6,8-trione]", "values": [
      {"measurement": "Emax", "value": 142, "unit": "%"},
      {"measurement": "EC50", "value": 85, "unit": "nM"}
    ]},
    {"compound": "Cn1cc(N2CCN3C(=O)N(c4c(F)cc(C#Cc5ccccc5)cc4F)C(=O)CC3(C)C2=O)cn1", "note": "(racemic) [Example 67, (9aRS)-7-[2,6-difluoro-4-(2-phenylethynyl)phenyl]-9a-methyl-2-(1-methylpyrazol-4-yl)-4,9-dihydro-3H-pyrazino[1,2-c]pyrimidine-1,6,8-trione]", "values": [
      {"measurement": "Emax", "value": 129, "unit": "%"},
      {"measurement": "EC50", "value": 113, "unit": "nM"}
    ]},
    {"compound": "CC12CC(=O)N(c3c(F)cc(C#Cc4ccccc4)cc3Cl)C(=O)N1CCN(c1cccnc1)C2=O", "note": "(racemic) [Example 74, (9aRS)-7-[2-chloro-6-fluoro-4-(2-phenylethynyl)phenyl]-9a-methyl-2-(3-pyridyl)-4,9-dihydro-3H-pyrazino[1,2-c]pyrimidine-1,6,8-trione]", "values": [
      {"measurement": "Emax", "value": 120, "unit": "%"},
      {"measurement": "EC50", "value": 102, "unit": "nM"}
    ]},
    {"compound": "CC12CC(=O)N(c3c(F)cc(C#Cc4ccccc4)cc3Cl)C(=O)N1CCN(c1ccncc1)C2=O", "note": "(racemic) [Example 75, (9aRS)-7-[2-chloro-6-fluoro-4-(2-phenylethynyl)phenyl]-9a-methyl-2-(4-pyridyl)-4,9-dihydro-3H-pyrazino[1,2-c]pyrimidine-1,6,8-trione]", "values": [
      {"measurement": "Emax", "value": 128, "unit": "%"},
      {"measurement": "EC50", "value": 210, "unit": "nM"}
    ]}
  ]
}
